Numbering of substitutions follows the chain as printed. Where two headings read alike, the source gives them in different places.
Experiments:
[1] = target: T1, RET(KD: 658-1114 G810R) (Homo sapiens, UniProt P07949, G810R); assay: HiBiT-Degradation, RET G810R degradation assay (Nano-Glo HiBiT Lytic), 293T.165 cells; assay type: cell-based; details: for Emax / DC50: 6.0 hours; for Emax: % remaining protein, read-out: 293T.165 RET(KD: 658-1114 G810R) 6.0 hours (Emax); for DC50: read-out: 293T.165 RET(KD: 658-1114 G810R) 6.0 hours (DC50)
T1 construct: 658-1114; expressed in transfected cells; host or cells: 293T.165 (293T cells, generated in-house)
T1 sequence (P07949 658-1114 G810R): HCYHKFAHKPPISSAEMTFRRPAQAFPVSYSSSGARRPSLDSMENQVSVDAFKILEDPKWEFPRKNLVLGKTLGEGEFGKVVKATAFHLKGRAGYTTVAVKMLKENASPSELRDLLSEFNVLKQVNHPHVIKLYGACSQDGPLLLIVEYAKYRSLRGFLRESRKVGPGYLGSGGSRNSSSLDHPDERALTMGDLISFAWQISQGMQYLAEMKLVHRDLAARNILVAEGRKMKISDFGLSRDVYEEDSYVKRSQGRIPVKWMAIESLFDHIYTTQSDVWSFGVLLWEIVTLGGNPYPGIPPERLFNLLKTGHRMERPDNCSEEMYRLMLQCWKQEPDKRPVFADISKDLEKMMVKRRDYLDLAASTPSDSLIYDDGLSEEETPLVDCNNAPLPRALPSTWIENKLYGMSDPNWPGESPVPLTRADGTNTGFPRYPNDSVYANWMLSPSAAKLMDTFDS
Outline: (§1)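 HEK293T lines stably expressing HiBiT-tagged RET kinase domain (WT: 293T.144; G810R: 293T.165) were treated with degraders for 6 h in duplicate, 11-point half-log series from 10 μM top dose. Lysis with Nano-Glo HiBiT Lytic reagent, luminescence read; DC50 and Emax (% remaining protein) derived from dose-response curves.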

[2] = target: T2, RET (658-1114) (Homo sapiens, UniProt P07949); assay: HiBiT-Degradation, RET wild-type degradation assay (Nano-Glo HiBiT Lytic), 293T.144 cells; assay type: cell-based; details: for Emax / DC50: 6.0 hours; for Emax: read-out: 293T.144 RET (658-1114) 6.0 hours (Emax); for DC50: read-out: 293T.144 RET (658-1114) 6.0 hours (DC50)
T2 construct: 658-1114; expressed in transfected cells; host or cells: 293T.144 (293T cells, generated in-house)
T2 sequence (P07949 658-1114): T1 sequence (P07949 658-1114 G810R) with R153G
Outline: as §1

[3] = half-maximal degradation concentration

Structure (SMILES) | 293T.165 RET(KD: 658-1114 G810R) 6.0 hours (IP) [nM] [1] | Emax [1] [%] | 293T.144 RET (658-1114) 6.0 hours (IP) [nM] [2] | Emax ([2]; % remaining protein) [%] | DC50 [2, 3] [µM] | DC50 [1, 3] [µM] | 293T.165 RET(KD: 658-1114 G810R) 6.0 hours (Emax) ([1]; HiBiT-Degradation) | 293T.165 RET(KD: 658-1114 G810R) 6.0 hours (IP) [nM] ([1]; HiBiT-Degradation) | DC50 ([1]; HiBiT-Degradation) [µM] | 293T.144 RET (658-1114) 6.0 hours (IP) [nM] ([2]; HiBiT-Degradation) | DC50 ([2]; HiBiT-Degradation) [µM] | Emax ([2]; HiBiT-Degradation) [%]
N#Cc1cnn2cc(-c3cnn(C4CCC(N5CCN(c6ccc(NC7CCC(=O)NC7=O)cc6F)CC5)CC4)c3)nc(-c3ccc(N4C[C@H]5COC[C@@H](C4)N5CC4CCC(F)(F)CC4)nc3)c12 (single isomer, unassigned) [Compound 150] | ++++ (<50 nM = ++++) | < 30 | ++++ (<50 nM = ++++) | < 30 | < 0.05 | – | – | – | – | – | – | –
N#Cc1cnn2cc(-c3ccc(N4CCN(C(=O)CN5CCC(c6ccc(NC7CCC(=O)NC7=O)cc6)CC5)CC4)cc3)cc(-c3ccc(N4CCC(Nc5ccccc5)CC4)nc3)c12 (stereo not drawn) [Compound 20, 6-(4-(4-(2-(4-(4-((2,6-Dioxopiperidin-3-yl)amino)phenyl)piperidin-1-yl)acetyl)piperazin-1-yl)phenyl)-4-(6-(4-(phenylamino)piperidin-1-yl)pyridin-3-yl)pyrazolo[1,5-a]pyridine-3-carbonitrile] | – | < 30 | – | – | – | < 0.1 | ++++ (< 30% = ++++) | +++ (<100 nM = +++) | < 0.1 | ++++ (< 50 nM = ++++) | < 0.05 | < 30
CCC1(C(=O)NC(C)C)CCN(c2ccc(-c3nc(-c4cnn(C5CCN(C(=O)CC6(OC)CCN(c7ccc(NC8CCC(=O)NC8=O)cc7F)CC6)CC5)c4)cn4ncc(C#N)c34)cn2)CC1 (stereo not drawn) [Compound 92, 1-[5-[3-cyano-6-[1-[1-[2-[1-[4-[(2,6-dioxo-3-piperidyl)amino]-2-fluoro-phenyl]-4-methoxy-4-piperidyl]acetyl]-4-piperidyl]pyrazol-4-yl]pyrazolo[1,5-a]pyrazin-4-yl]-2-pyridyl]-4-ethyl-N-isopropyl-piperidine-4-carboxamide] | ++++ (<50 nM = ++++) | < 30 | ++++ (<50 nM = ++++) | < 30 | < 0.05 | < 0.1 | – | – | – | – | – | –
N#Cc1cnn2cc(-c3cnn(C4CCN(C(=O)CN5CCC(c6ccc(NC7CCC(=O)NC7=O)cc6F)CC5)CC4)c3)cc(-c3ccc(N4CCN(C(=O)Cc5ccc(F)cn5)CC4)nc3)c12 (stereo not drawn) [Compound 5, 6-[1-[1-[2-[4-[4-[(2,6-dioxo-3-piperidyl)amino]-2-fluoro-phenyl]-1-piperidyl]acetyl]-4-piperidyl]pyrazol-4-yl]-4-[6-[4-[2-(5-fluoro-2-pyridyl)acetyl]piperazin-1-yl]-3-pyridyl]pyrazolo[1,5-a]pyridine-3-carbonitrile] | – | < 30 | – | – | – | < 0.05 | ++++ (< 30% = ++++) | ++++ (< 50 nM = ++++) | < 0.05 | ++++ (< 50 nM = ++++) | < 0.05 | < 30
N#Cc1cnn2cc(-c3ccc(N4CCN(C(=O)CC5(O)CCN(c6ccc(NC7CCC(=O)NC7=O)cc6F)CC5)CC4)cc3)cc(-c3ccc(N4CCN(C(=O)Cc5ccc(F)cn5)CC4)nc3)c12 (stereo not drawn) [Compound 26, 6-[4-[4-[2-[1-[4-[(2,6-Dioxo-3-piperidyl)amino]-2-fluoro-phenyl]-4-hydroxy-4-piperidyl]acetyl]piperazin-1-yl]phenyl]-4-[6-[4-[2-(5-fluoro-2-pyridyl)acetyl]piperazin-1-yl]-3-pyridyl]pyrazolo[1,5-a]pyridine-3-carbonitrile] | – | < 50 | – | – | – | < 0.05 | +++ (<50% = +++) | ++++ (< 50 nM = ++++) | < 0.05 | ++++ (< 50 nM = ++++) | < 0.05 | < 30
CC(C)NC(=O)C1(C)CCN(c2ccc(-c3cc(-c4ccc(N5CCN(C(=O)CN6CCC(c7ccc(NC8CCC(=O)NC8=O)cc7F)CC6)CC5)cc4)cn4ncc(C#N)c34)cn2)CC1 (stereo not drawn) [Compound 45, 1-[5-[3-cyano-6-[4-[4-[2-[4-[4-[(2,6-dioxo-3-piperidyl)amino]-2-fluoro-phenyl]-1-piperidyl]acetyl]piperazin-1-yl]phenyl]pyrazolo[1,5-a]pyridin-4-yl]-2-pyridyl]-N-isopropyl-4-methyl-piperidine-4-carboxamide] | – | < 30 | – | – | – | < 0.1 | ++++ (< 30% = ++++) | ++++ (< 50 nM = ++++) | < 0.1 | ++++ (< 50 nM = ++++) | < 0.05 | < 30
N#Cc1cnn2cc(-c3cnn([C@H]4CC[C@@H](N5CCN(c6ccc(NC7CCC(=O)NC7=O)cc6F)CC5)CC4)c3)nc(-c3ccc(N4C[C@H]5COC[C@@H](C4)N5Cc4ccc(F)cn4)nc3)c12 (single isomer, unassigned) [Compound 151] | ++++ (<50 nM = ++++) | < 30 | ++++ (<50 nM = ++++) | < 30 | < 0.05 | < 0.05 | – | – | – | – | – | –
CC(C)(C)NC(=O)C1(C)CCN(c2ccc(-c3cc(-c4ccc(N5CCN(C(=O)CN6CCC(c7ccc(NC8CCC(=O)NC8=O)cc7F)CC6)CC5)cc4)cn4ncc(C#N)c34)cn2)CC1 (stereo not drawn) [Compound 25, N-(tert-butyl)-1-(5-(3-cyano-6-(4-(4-(2-(4-(4-((2,6-dioxopiperidin-3-yl)amino)-2-fluorophenyl)piperidin-1-yl)acetyl)piperazin-1-yl)phenyl)pyrazolo[1,5-a]pyridin-4-yl)pyridin-2-yl)-4-methylpiperidine-4-carboxamide] | – | < 50 | – | – | – | < 0.1 | +++ (<50% = +++) | ++++ (< 50 nM = ++++) | < 0.1 | ++++ (< 50 nM = ++++) | < 0.05 | < 30
N#Cc1cnn2cc(-c3cnn(C4CCN(C(=O)CC5(O)CCN(c6ccc(NC7CCC(=O)NC7=O)cc6F)CC5)CC4)c3)nc(-c3ccc(N4CCN(C(=O)C5CCCCC5)CC4)nc3)c12 (stereo not drawn) [Compound 107, 4-[6-[4-(cyclohexanecarbonyl)piperazin-1-yl]-3-pyridyl]-6-[1-[1-[2-[1-[4-[(2,6-dioxo-3-piperidyl)amino]-2-fluoro-phenyl]-4-hydroxy-4-piperidyl]acetyl]-4-piperidyl]pyrazol-4-yl]pyrazolo[1,5-a]pyrazine-3-carbonitrile] | ++++ (<50 nM = ++++) | < 30 | ++++ (<50 nM = ++++) | < 30 | < 0.05 | < 0.1 | – | – | – | – | – | –
CCC1(C(=O)NC2CCC2)CCN(c2ccc(-c3nc(-c4cnn(C5CCN([C@H]6CCN(c7ccc(N[C@H]8CCC(=O)NC8=O)cc7F)CC6(F)F)CC5)c4)cn4ncc(C#N)c34)cn2)CC1 (single isomer, unassigned) [Compound 191] | +++ (<100 nM = +++) | < 30 | ++++ (<50 nM = ++++) | < 30 | < 0.05 | < 0.1 | – | – | – | – | – | –
CCC1(C(=O)NC[C@H]2C[C@H](F)C2)CCN(c2ccc(-c3nc(-c4cnn([C@H]5CC[C@H](N6CCN(c7ccc(NC8CCC(=O)NC8=O)cc7F)CC6)CC5)c4)cn4ncc(C#N)c34)cn2)CC1 (stereo partly drawn) [Compound 207, 1-[5-[3-cyano-6-[1-[4-[4-[4-[(2,6-dioxo-3-piperidyl)amino]-2-fluoro-phenyl]piperazin-1-yl]cyclohexyl]pyrazol-4-yl]pyrazolo[1,5-a]pyrazin-4-yl]-2-pyridyl]-4-ethyl-N-[(3-fluorocyclobutyl)methyl]piperidine-4-carboxamide] | ++++ (<50 nM = ++++) | < 30 | ++++ (<50 nM = ++++) | < 30 | < 0.05 | < 0.05 | – | – | – | – | – | –
